Each structure is given as a SMILES string. Active and inactive are the calls of the source. Rule as the data show it: actives have a measured IC50 and inactives only a lower limit.

The IC50 is the concentration at which inhibition is half-maximal.

Envelope glycoprotein gp160, sequence (Q6QLK5 whole entry, the tested form may be a part): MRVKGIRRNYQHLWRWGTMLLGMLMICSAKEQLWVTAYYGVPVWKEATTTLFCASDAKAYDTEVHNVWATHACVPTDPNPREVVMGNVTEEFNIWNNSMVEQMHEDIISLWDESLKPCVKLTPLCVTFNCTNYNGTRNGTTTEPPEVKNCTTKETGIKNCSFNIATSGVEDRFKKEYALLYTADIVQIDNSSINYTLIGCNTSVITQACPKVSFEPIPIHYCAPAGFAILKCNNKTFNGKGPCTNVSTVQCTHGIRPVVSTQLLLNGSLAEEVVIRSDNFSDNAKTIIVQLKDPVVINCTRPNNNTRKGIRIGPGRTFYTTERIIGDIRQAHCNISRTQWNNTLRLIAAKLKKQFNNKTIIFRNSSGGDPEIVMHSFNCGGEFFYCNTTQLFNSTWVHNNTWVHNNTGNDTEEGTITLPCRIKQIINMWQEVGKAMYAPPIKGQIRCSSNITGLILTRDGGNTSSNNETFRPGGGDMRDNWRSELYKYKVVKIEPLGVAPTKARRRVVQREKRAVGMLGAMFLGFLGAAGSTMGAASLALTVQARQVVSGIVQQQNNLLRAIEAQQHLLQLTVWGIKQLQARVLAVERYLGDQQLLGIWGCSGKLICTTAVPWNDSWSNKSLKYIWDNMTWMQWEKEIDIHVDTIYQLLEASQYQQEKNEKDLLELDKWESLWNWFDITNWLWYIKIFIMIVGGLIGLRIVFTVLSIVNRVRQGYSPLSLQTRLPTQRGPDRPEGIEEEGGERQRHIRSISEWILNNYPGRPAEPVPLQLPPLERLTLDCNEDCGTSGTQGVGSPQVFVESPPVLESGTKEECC

The assay concerns the target Envelope glycoprotein gp160 (Human immunodeficiency virus 1, UniProt Q6QLK5). The assay can be described thus: inhibitors of HIV fusion peptide binding, primary screen, biochemical, uHTS, fluorescence dequenching (AID 1986).
`N#C/C(=C\c1ccc(O)c([N+](=O)[O-])c1)c1nc2ccccc2s1`: the IC50 is 25.2 µM (active).
On to `O=C(O)/C(CC(=O)c1ccc(Cl)cc1)=N/Nc1ccc([N+](=O)[O-])cc1[N+](=O)[O-]`, for which the IC50 was 20.8 µM (active).
The result for `Cc1ccc(NC(S)=NNc2ccc([N+](=O)[O-])cc2S(=O)(=O)Nc2ccccc2C(=O)O)cc1C` reads 7.4 µM (active).
The result for `CC(C)CS(=O)(=O)C1=NN2C(=N)/C(=C\c3ccc(OC(=O)c4ccco4)cc3)C(=O)N=C2S1` reads 12.8 µM (active).
